Reference: US7998965B2, “Glutamate aggrecanase inhibitors” (Wyeth LLC, priority 2005, dated 2011)
Where two headings read alike, the source gives them in different places.

Legend:
[1] = molecular target: T1, purified recombinant human Aggrecanase-2 (Ag2t-Phe628-Strep) (Homo sapiens, UniProt Q9UNA0); test: In vitro fluorescence screen for Aggrecanase-2 inhibitors; type: biochemical; details: for IC50: read-out: Agg 2 IC50; for Ki: read-out: Ki Agg2
T1 construct: the form used is denoted as Ag2t-Phe628-Strep (MW=41,737)
T1 sequence (Q9UNA0 262-628): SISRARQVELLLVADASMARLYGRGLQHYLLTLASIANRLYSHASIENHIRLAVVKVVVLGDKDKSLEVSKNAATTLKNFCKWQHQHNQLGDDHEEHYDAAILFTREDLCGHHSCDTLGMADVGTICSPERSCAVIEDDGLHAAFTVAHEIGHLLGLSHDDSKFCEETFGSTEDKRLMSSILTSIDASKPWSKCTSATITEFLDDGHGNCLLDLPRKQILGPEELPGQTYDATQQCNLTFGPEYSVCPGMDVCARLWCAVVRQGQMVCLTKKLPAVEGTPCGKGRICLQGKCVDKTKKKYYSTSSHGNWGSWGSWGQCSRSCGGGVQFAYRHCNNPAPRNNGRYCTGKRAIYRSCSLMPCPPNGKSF

[2] = molecular target: T2, purified recombinant human Aggrecanase-1 (rAgg1) (Homo sapiens, UniProt O75173); test: In vitro fluorescence screen for Aggrecanase-1 inhibitors; type: biochemical; design: Agg1 % at concentration: scale not given here; details: for IC50: read-out: Agg1 IC50; for Ki: read-out: Ki Agg1
T2 sequence (O75173 213-837): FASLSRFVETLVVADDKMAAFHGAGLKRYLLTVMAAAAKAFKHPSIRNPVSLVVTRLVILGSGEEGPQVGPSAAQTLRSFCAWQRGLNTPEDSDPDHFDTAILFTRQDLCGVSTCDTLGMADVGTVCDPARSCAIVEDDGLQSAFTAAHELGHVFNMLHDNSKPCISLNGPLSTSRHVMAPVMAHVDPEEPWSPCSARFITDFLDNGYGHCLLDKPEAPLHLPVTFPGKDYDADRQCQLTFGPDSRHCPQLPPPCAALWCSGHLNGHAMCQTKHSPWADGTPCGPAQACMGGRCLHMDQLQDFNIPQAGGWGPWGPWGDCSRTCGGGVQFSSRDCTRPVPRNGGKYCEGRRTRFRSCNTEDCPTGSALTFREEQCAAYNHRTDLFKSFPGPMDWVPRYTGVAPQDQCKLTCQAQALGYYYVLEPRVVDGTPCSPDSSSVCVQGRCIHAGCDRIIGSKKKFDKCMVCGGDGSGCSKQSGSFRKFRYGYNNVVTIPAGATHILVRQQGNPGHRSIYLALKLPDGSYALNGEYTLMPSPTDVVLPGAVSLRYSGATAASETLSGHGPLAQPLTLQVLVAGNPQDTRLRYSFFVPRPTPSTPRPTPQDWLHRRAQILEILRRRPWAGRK

| SMILES | IC50 ([1]; Table 3) [µM] | IC50 ([1]; Table 2) [µM] | IC50 ([2]; Table 2) [µM] | also measured |
| --- | --- | --- | --- | --- |
| O=C(O)CC[C@H](NC(=O)c1ccc(-c2ccc(OCc3cccc(-c4ccccc4)c3)cc2)cc1)C(=O)NCc1ccccc1 [Example 15U, N-benzyl-N^2-{[4′-(biphenyl-3-ylmethoxy)biphenyl-4-yl]carbonyl}-L-α-glutamine] | 0.6 | – | – | inhibition at 11 µM ([1]; Table 3, at 11000 (nM), read-out: Agg 2 % at concentration): 30%; Agg1 % at concentration ([2]; Table 3, at 100 (nM)): 53%; Agg1 % at concentration ([2]; Table 3, at 1000 (nM)): 53% |
| COc1cc(CNC(=O)[C@H](CCC(=O)O)NC(=O)c2cccc3c2-c2ccccc2C3)cc(OC)c1OC [Example 8XXXX, N^2-(9H-fluoren-4-ylcarbonyl)-N^1-(3,4,5-trimethoxybenzyl)-L-α-glutamine] | – | > 200 | > 50 | – |
| COc1cc(CNC(=O)[C@H](CCC(=O)O)NC(=O)c2ccc(-c3ccc(C(C)C)cc3)cc2)cc(OC)c1OC [Example 17AA, N^2-[(4′-isopropylbiphenyl-4-yl)carbonyl]-N-(3,4,5-trimethoxybenzyl)-L-α-glutamine] | – | 5.7 | 3.5 | – |
| O=C(O)CC[C@H](NC(=O)c1ccc(C#CC(O)(c2ccccc2)c2ccccc2)cc1)C(=O)NCc1ccccc1 [Example 12K, N-benzyl-N^2-[4-(3-hydroxy-3,3-diphenylprop-1-yn-1-yl)benzoyl]-L-α-glutamine] | – | > 22 | ~25 | – |
| CCCCCNC(=O)[C@H](CCC(=O)O)NC(=O)c1ccc(-c2ccccc2)cc1 [Example 8RRR, N^2-(biphenyl-4-ylcarbonyl)-N^1-pentyl-L-α-glutamine] | – | – | – | IC50 ([1]; Table 1): 0.68 µM; IC50 ([2]; Table 1): 0.082 µM |
| CCOc1ccccc1-c1ccc(C(=O)N[C@@H](CCC(=O)O)C(=O)NCc2cc(OC)c(OC)c(OC)c2)cc1 [Example 17A, N^2-[(2′-ethoxybiphenyl-4-yl)carbonyl]-N-(3,4,5-trimethoxybenzyl)-L-α-glutamine] | – | 1.12 | 0.116 | – |
| O=C(O)CC[C@H](NC(=O)c1ccc(-c2ccccc2)cc1)C(=O)NCCc1cccc(-c2ccc(C(F)(F)F)cc2)c1 [Example 10K, N^2-(biphenyl-4-ylcarbonyl)-N^1-{2-[4′-(trifluoromethyl)biphenyl-3-yl]ethyl}-L-α-glutamine] | – | – | – | IC50 ([1]; Table 1): > 100 µM; IC50 ([2]; Table 1): 0.38 µM |
| CC(C)(Cc1ccccc1)NC(=O)[C@H](CCC(=O)O)NC(=O)c1sccc1-c1ccccc1 [Example 8BBBBBBBBBB, N-(1,1-dimethyl-2-phenylethyl)-N^2-[(3-phenyl-2-thienyl)carbonyl]-L-α-glutamine] | > 200 | – | – | IC50 ([2]; Table 3): 22 µM |
| CC(C)(Cc1ccc(Cl)cc1)NC(=O)[C@H](CCC(=O)O)NC(=O)c1ccc(-c2ccc(Cl)s2)nc1 [N-[2-(4-chlorophenyl)-1,1-dimethylethyl]-N^2-{[6-(5-chloro-2-thienyl)pyridin-3-yl]carbonyl}-L-α-glutamine] | 0.1 to 0.3 | – | – | Ki ([1]; Table 3): 0.526 µM; IC50 ([2]; Table 3): 0.02 to 0.07 µM; Ki ([2]; Table 3): 0.0406 µM |
| CC(C)(Cc1ccc(F)cc1)NC(=O)[C@H](CCC(=O)O)NC(=O)c1ccc(-c2ccc3c(c2)OCC3)cc1 [Example 8BBBBBBBB, N^2-[4-(2,3-dihydro-1-benzofuran-6-yl)benzoyl]-N-[2-(4-fluorophenyl)-1,1-dimethylethyl]-L-α-glutamine] | 0.2 to 0.6 | – | – | IC50 ([2]; Table 3): 0.3 µM |
| CC(C)(Cc1ccc(F)cc1)NC(=O)[C@H](CCC(=O)O)NC(=O)c1ccc(-c2ccc(F)cc2)cc1 [N^2-[(4′-fluorobiphenyl-4-yl)carbonyl]-N-[2-(4-fluorophenyl)-1,1-dimethylethyl]-L-α-glutamine] | 0.083 | – | – | Ki ([1]; Table 3): 0.075 µM; IC50 ([2]; Table 3): < 0.03 µM; Ki ([2]; Table 3): 0.0069 µM |
| COc1cc(CNC(=O)[C@H](CCC(=O)O)NC(=O)c2ccc(-c3cccc(C(C)C)c3)cc2)cc(OC)c1OC [Example 17Z, N^2-[(3′-isopropylbiphenyl-4-yl)carbonyl]-N-(3,4,5-trimethoxybenzyl)-L-α-glutamine] | – | 3.14 | 0.17 | – |
| CCOc1ccccc1-c1ccc(C(=O)N[C@@H](CCC(=O)O)C(=O)NC(C)(C)Cc2ccccc2)cc1 [Example 17K, N-(1,1-dimethyl-2-phenylethyl)-N^2-[(2′-ethoxybiphenyl-4-yl)carbonyl]-L-α-glutamine] | – | ~3.7 | 1.2 | – |
| CC(C)(Cc1ccc(F)cc1)NC(=O)[C@H](CCC(=O)O)NC(=O)c1ccc(-c2cccc(O)c2)cc1 [Example 17UU, N-[2-(4-fluorophenyl)-1,1-dimethylethyl]-N^2-[(3′-hydroxybiphenyl-4-yl)carbonyl]-L-α-glutamine] | – | 0.039 | < 0.03 | – |
| O=C(O)CC[C@H](NC(=O)c1ccc(-c2ccccc2)cc1)C(=O)NCCc1cccc(Cl)c1 [Example 8YY, N^2-(1,1′-biphenyl-4-ylcarbonyl)-N^1-[2-(3-chlorophenyl)ethyl]-L-α-glutamine] | – | – | – | IC50 ([1]; Table 1): 4.5 µM; IC50 ([2]; Table 1): 0.53 µM |
| COc1cccc(-c2ccc(C(=O)N[C@@H](CCC(=O)O)C(=O)NC(C)(C)Cc3ccc(Cl)cc3)s2)c1 [Example 8YYYYYYY, N-[2-(4-chlorophenyl)-1,1-dimethylethyl]-N^2-{[5-(3-methoxyphenyl)-2-thienyl]carbonyl}-L-α-glutamine] | 0.2 to 0.6 | – | – | Ki ([1]; Table 3): 0.197 µM; IC50 ([2]; Table 3): < 0.03 µM; Ki ([2]; Table 3): 0.027 µM |
| COc1cccc(-c2ccc(C(=O)N[C@@H](CCC(=O)O)C(=O)NCc3cc(OC)c(OC)c(OC)c3)cc2)c1 [Example 17C, N^2-[(3′-methoxybiphenyl-4-yl)carbonyl]-N-(3,4,5-trimethoxybenzyl)-L-α-glutamine] | – | 0.08 | < 0.03 | – |
| C[C@@H](NC(=O)[C@H](CCC(=O)O)NC(=O)c1ccc(-c2ccccc2)cc1)c1ccc(F)cc1 [Example 8TTTTT, N^2-(biphenyl-4-ylcarbonyl)-N^1-[(1R)-1-(4-fluorophenyl)ethyl]-L-α-glutamine] | – | 2.01 | 0.389 | – |
| Cc1cccc(CNC(=O)[C@H](CCC(=O)O)NC(=O)c2ccc(-c3cccc(COc4cc(C(F)(F)F)cc(C(F)(F)F)c4)c3)cc2)c1 [Example 15S, N^2-[(3′-{[3,5-bis(trifluoromethyl)phenoxy]methyl}biphenyl-4-yl)carbonyl]-N-(3-methylbenzyl)-L-α-glutamine] | – | – | – | Agg 2 % at concentration ([1]; Table 3, at 33000 (nM)): 41%; Agg1 % at concentration ([2]; Table 3, at 1850 (nM)): 30% |
| Cc1ccc(-c2ccc(C(=O)N[C@@H](CCC(=O)O)C(=O)NC(C)(C)Cc3ccc(F)cc3)cc2)cc1F [Example 17GG, N^2-[(3′-fluoro-4′-methylbiphenyl-4-yl)carbonyl]-N-[2-(4-fluorophenyl)-1,1-dimethylethyl]-L-α-glutamine] | – | 0.113 | 0.034 | – |
| O=C(O)CC[C@H](NC(=O)C1c2ccccc2-c2ccccc21)C(=O)NC12CC3CC(CC(C3)C1)C2 [Example 8BBBBB, N^1-1-adamantyl-N^2-(9H-fluoren-9-ylcarbonyl)-L-α-glutamine] | – | 20.9 | > 17 | – |
| CC(C)(Cc1ccccc1)NC(=O)[C@H](CCC(=O)O)NC(=O)c1ccc(-c2cccnc2)s1 [N-(1,1-dimethyl-2-phenylethyl)-N^2-[(5-pyridin-3-yl-2-thienyl)carbonyl]-L-α-glutamine] | 7.2 | – | – | Agg1 % at concentration ([2]; Table 3, at 70 (nM)): 57% 70 |
| CCOc1cccc(-c2ccc(C(=O)N[C@@H](CCC(=O)O)C(=O)NC(C)(C)Cc3ccc(F)cc3)cc2)c1 [Example 17DD, N^2-[(3′-ethoxybiphenyl-4-yl)carbonyl]-N-[2-(4-fluorophenyl)-1,1-dimethylethyl]-L-α-glutamine] | – | 1.19 | < 0.03 | – |
| CC(NC(=O)[C@H](CCC(=O)OC(C)(C)C)NC(=O)c1ccc(-c2ccccc2)cc1)c1ccccc1 (stereo partly drawn) [Example 8SSSSS, tert-butyl N^2-(biphenyl-4-ylcarbonyl)-N^1-(1-Phenylethyl)-L-α-glutaminate] | – | 2.47 | 0.208 | – |
| Cc1cc(C)cc(-c2ccc(C(=O)N[C@@H](CCC(=O)O)C(=O)NCC34CC5CC(CC(C5)C3)C4)cc2)c1 [Example 17X, N-(1-adamantylmethyl)-N^2-[(3′,5′-dimethylbiphenyl-4-yl)carbonyl]-L-α-glutamine] | – | ~22 | 2 | – |
| CC(C)(Cc1ccccc1)NC(=O)[C@H](CCC(=O)O)NC(=O)c1cccc(-c2ccc(Cl)s2)c1 [N^2-[3-(5-chloro-2-thienyl)benzoyl]-N-(1,1-dimethyl-2-phenylethyl)-L-α-glutamine] | > 8.3 | – | – | IC50 ([2]; Table 3): > 0.9 µM |
